Source: patent US4623662A, “Antiatherosclerotic ureas and thioureas” (American Cyanamid Company, priority 1985, dated 1986)

These compounds were tested on cholesterol absorption (assay: Inhibition of cholesterol absorption in rats fed 1% cholesterol:0.5% cholic acid diet). Settings: po, 336 h; rat; dose .001% of the diet, 2 weeks; read-out: LS (liver sterol), percentage of control values.
Assay type: in vivo, male Sprague-Dawley rats
Summary of the method: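 Compound was mixed into the diet (0.001-0.03%) of male Sprague-Dawley rats, 150-170 g, on a 1% cholesterol/0.5% cholic acid regimen for 2 weeks. At sacrifice, serum cholesterol (enzymatic) and liver neutral-sterol cholesterol were measured; values given as percent of compound-free control rats.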

SMILES	response vs control in vivo at 0.001 % [%]
CCCCCCCN(Cc1ccc(COCCC(C)C)cc1)C(=O)Nc1c(F)cc(F)cc1F [1-(n-Heptyl)-1-[4-(isopentyloxymethyl)benzyl]-3-(2,4,6-trifluorophenyl)urea]	75

Same assay, conditions: po, 336 h; rat; dose .003% of the diet, 2 weeks; read-out: LS (liver sterol), percentage of control values

SMILES	response vs control in vivo at 0.003 % [%]
CCCCCCCN(Cc1ccc(CCSC(C)C)cc1)C(=O)Nc1ccc(F)cc1F [1-(n-Heptyl)-1-[4-(2-isopropylthioethyl)benzyl]-3-(2,4-difluorophenyl)urea]	72
CCCCCCCN(Cc1ccc(CO)cc1)C(=O)Nc1ccc(F)cc1F [1-(n-Heptyl)-1-[4-(hydroxymethyl)benzyl]-3-(2,4-difluorophenyl)urea]	81
CCCCCCCN(Cc1ccc(CC[S+]([O-])C(C)C)cc1)C(=O)Nc1ccc(F)cc1F (stereo not drawn) [1-(n-Heptyl)-1-[4-(2-isopropylsulfinylethyl)benzyl]-3-(2,4-difluorophenyl)urea]	84
CCCCCCCN(Cc1ccc(COCCC(C)C)cc1)C(=O)Nc1c(C)cc(Cl)cc1C [1-(n-Heptyl)-1-[4-(isopentyloxymethyl)benzyl]-3-(4-chloro-2,6-dimethylphenyl)urea]	47

Same assay, conditions: po, 336 h; rat; dose .01% of the diet, 2 weeks; read-out: LS (liver sterol), percentage of control values

SMILES	response vs control in vivo at 0.01 % [%]
CCCCCCCN(Cc1ccc(COCCC(C)C)cc1)C(=O)Nc1ccc(F)cc1F [1-(n-Heptyl)-1-[4-(isopentyloxymethyl)benzyl]-3-(2,4-difluorophenyl)urea]	60
CCCCCCCN(Cc1ccc(CC2CCCC2)cc1)C(=O)Nc1ccc(F)cc1F [1-(n-Heptyl)-1-[4-(4-cyclopentylmethyl)benzyl]-3-(2,4-difluorophenyl)urea]	80
CCCCCCCN(Cc1ccc(COC(C)=O)cc1)C(=O)Nc1ccc(F)cc1F [1-(n-Heptyl)-1-[4-(acetoxymethyl)benzyl]-3-(2,4-difluorophenyl)urea]	70
CCCCCCCN(Cc1ccc(CC(C)C(C)CC)cc1)C(=O)Nc1c(C)cc(Cl)cc1C (stereo not drawn) [1-(n-Heptyl)-1-[4-(2,3-dimethylpentyl)benzyl]-3-(4-chloro-2,6-dimethylphenyl)urea]	40

Same assay, conditions: po, 336 h; rat; dose .01% of the diet, 2 weeks; read-out: SS (serum sterol), percentage of control values

SMILES	response vs control in vivo at 0.01 % [%]
CCCCCCCN(Cc1ccc(CC(C)C(C)CC)cc1)C(=O)Nc1c(C)cc(Cl)cc1C (stereo not drawn) [1-(n-Heptyl)-1-[4-(2,3-dimethylpentyl)benzyl]-3-(4-chloro-2,6-dimethylphenyl)urea]	43

Same assay, conditions: po, 336 h; rat; dose .03% of the diet, 2 weeks; read-out: LS (liver sterol), percentage of control values

SMILES	response vs control in vivo at 0.03 % [%]
Cc1cc(Cl)ccc1NC(=O)N(Cc1ccccc1)C(Cc1ccccc1)c1ccc(OCc2ccccc2)cc1 (stereo not drawn) [1-Benzyl-1-[2-phenyl-1-(4-benzyloxyphenyl)ethyl]-3-(2-methyl-4-chlorophenyl)urea]	31
CCCCCOc1ccc(CN(Cc2ccc(CCCCC)cc2)C(=O)Nc2ccc(F)cc2F)cc1 [1-(4-n-Pentylbenzyl)-1-(4-n-pentyloxybenzyl)-3-(2,4-difluorophenyl)urea]	67
CC(C)CCN(Cc1ccc(C(C)C)cc1)C(=O)Nc1c(F)cc(F)cc1F [1-(Isopentyl)-1-[4-(isopropyl)benzyl]-3-(2,4,6-trifluorophenyl)urea]	35
CCCCCCCN(Cc1ccc(CCCC)cc1)C(=O)Nc1ccc(Cl)cc1C(F)(F)F [1-(n-Heptyl)-1-(4-n-butylbenzyl)-3-(2-trifluoromethyl-4-chlorophenyl)urea]	47
CCCCc1ccc(CN(CCOCCO)C(=O)Nc2cc(C)c(C)cc2C)cc1 [1-[(4-Butylphenyl)methyl]-1-[2-(2-hydroxyethoxy)ethyl]-3-(2,4,5-trimethylphenyl)urea]	76
CCCCc1ccc(CN(CCC(C)(C)C)C(=O)Nc2c(C)cc(Cl)cc2C)cc1 [1-(3,3-Dimethylbutyl)-1-[4-(n-butyl)benzyl]-3-(4-chloro-2,6-dimethylphenyl)urea]	12
CCCCc1ccc(CN(Cc2ccccc2)C(=O)Nc2cc(C)c(C)cc2C)cc1 [1-Benzyl-1-(4-n-butylbenzyl)-3-(2,4,5-trimethylphenyl)urea]	10

Same assay, conditions: po, 336 h; rat; dose .03% of the diet, 2 weeks; read-out: SS (serum sterol), percentage of control values

SMILES	response vs control in vivo at 0.03 % [%]
Cc1cc(Cl)ccc1NC(=O)N(Cc1ccccc1)C(Cc1ccccc1)c1ccc(OCc2ccccc2)cc1 (stereo not drawn) [1-Benzyl-1-[2-phenyl-1-(4-benzyloxyphenyl)ethyl]-3-(2-methyl-4-chlorophenyl)urea]	50
CCCCCOc1ccc(CN(Cc2ccc(CCCCC)cc2)C(=O)Nc2ccc(F)cc2F)cc1 [1-(4-n-Pentylbenzyl)-1-(4-n-pentyloxybenzyl)-3-(2,4-difluorophenyl)urea]	55
CC(C)CCN(Cc1ccc(C(C)C)cc1)C(=O)Nc1c(F)cc(F)cc1F [1-(Isopentyl)-1-[4-(isopropyl)benzyl]-3-(2,4,6-trifluorophenyl)urea]	31
CCCCCCCN(Cc1ccc(CCCC)cc1)C(=O)Nc1ccc(Cl)cc1C(F)(F)F [1-(n-Heptyl)-1-(4-n-butylbenzyl)-3-(2-trifluoromethyl-4-chlorophenyl)urea]	63
CCCCc1ccc(CN(CCOCCO)C(=O)Nc2cc(C)c(C)cc2C)cc1 [1-[(4-Butylphenyl)methyl]-1-[2-(2-hydroxyethoxy)ethyl]-3-(2,4,5-trimethylphenyl)urea]	100
CCCCc1ccc(CN(CCC(C)(C)C)C(=O)Nc2c(C)cc(Cl)cc2C)cc1 [1-(3,3-Dimethylbutyl)-1-[4-(n-butyl)benzyl]-3-(4-chloro-2,6-dimethylphenyl)urea]	28
CCCCc1ccc(CN(Cc2ccccc2)C(=O)Nc2cc(C)c(C)cc2C)cc1 [1-Benzyl-1-(4-n-butylbenzyl)-3-(2,4,5-trimethylphenyl)urea]	50

What follows are compounds tested against T1, fatty acyl CoA:cholesterol acyl transferase (ACAT) (Rattus norvegicus, UniProt Q7TQM4) (assay: Inhibition of ACAT from microsomes isolated from rat intestinal mucosal cells). Settings: not given.
T1 construct: the enzyme was derived from microsomes isolated from rat intestinal mucosal cells; from tissue; host or cells: rat intestinal mucosal cells, microsomes
T1 sequence (Q7TQM4 1-524): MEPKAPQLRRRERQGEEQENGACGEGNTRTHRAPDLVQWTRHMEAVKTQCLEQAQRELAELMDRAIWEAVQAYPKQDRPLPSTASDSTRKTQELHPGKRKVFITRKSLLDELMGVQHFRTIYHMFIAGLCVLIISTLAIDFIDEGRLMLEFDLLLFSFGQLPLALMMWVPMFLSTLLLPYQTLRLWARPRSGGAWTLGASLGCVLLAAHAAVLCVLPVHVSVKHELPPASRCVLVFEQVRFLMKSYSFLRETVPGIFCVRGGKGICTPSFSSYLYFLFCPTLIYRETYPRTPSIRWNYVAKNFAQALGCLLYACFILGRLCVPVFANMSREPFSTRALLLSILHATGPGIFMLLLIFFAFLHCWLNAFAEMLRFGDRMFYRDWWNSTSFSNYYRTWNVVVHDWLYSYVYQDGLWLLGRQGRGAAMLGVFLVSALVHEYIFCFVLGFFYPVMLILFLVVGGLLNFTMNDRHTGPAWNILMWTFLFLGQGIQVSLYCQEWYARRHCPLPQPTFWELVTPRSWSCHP
Assay type: biochemical
Experimental: The compounds were tested for their ability to inhibit ACAT according to the following procedure: rat adrenals were homogenized in 0.2M monobasic potassium phosphate buffer, pH 7.4, and centrifuged at 1,000 times gravity for 15 minutes at 5° C. The supernatant, containing the microsomal fraction, served as the source of the cholesterol-esterifying enzyme, fatty acyl CoA:cholesterol acyl transferase (ACAT). A mixture comprising 50 parts of adrenal supernatant, 10 parts of bovine serum albumin (50 mg/ml), 3 parts of test compound (final concentration 5.2 μg/ml), and 500 parts of buffer was preincubated at 37° C. for 10 minutes. After treatment with 20 parts of oleoyl CoA (^14 C-0.4 μCi), the mixture was incubated at 37° C. for 10 minutes. A control mixture, omitting the test compound, was prepared and treated in the same manner. The lipids from the incubation mixture was extracted into an organic solvent and separated by thin-layer chromatography. The cholesteryl ester fraction was counted in a scintillation counter. This procedure is a modification of that described by Hashimoto, et al., Life Scie., 12 (Part II), 1-12 (1973).
The compounds of this invention were tested in vitro at several concentrations for their ability to inhibit the enzyme fatty acyl CoA:cholesterol acyl transferase (ACAT) using the hereinabove described procedure except that the enzyme was derived from microsomes isolated from rat intestinal mucosal cells rather than rat adrenal cells. The results of this test on representative compounds of this invention are given in Table III in terms of IC50 (μM), that concentration which produced 50% inhibition of the ACAT enzyme.

SMILES	IC50 [nM]
CCCCCCCN(Cc1ccc(CCSC(C)C)cc1)C(=O)Nc1ccc(F)cc1F [1-(n-Heptyl)-1-[4-(2-isopropylthioethyl)benzyl]-3-(2,4-difluorophenyl)urea]	210
CCCCCCCN(Cc1ccc(CC[S+]([O-])C(C)C)cc1)C(=O)Nc1ccc(F)cc1F (stereo not drawn) [1-(n-Heptyl)-1-[4-(2-isopropylsulfinylethyl)benzyl]-3-(2,4-difluorophenyl)urea]	220
CCCCCCCN(Cc1ccc(COC(C)=O)cc1)C(=O)Nc1ccc(F)cc1F [1-(n-Heptyl)-1-[4-(acetoxymethyl)benzyl]-3-(2,4-difluorophenyl)urea]	120
CCCCCCCN(Cc1ccc(CC(C)C(C)CC)cc1)C(=O)Nc1c(C)cc(Cl)cc1C (stereo not drawn) [1-(n-Heptyl)-1-[4-(2,3-dimethylpentyl)benzyl]-3-(4-chloro-2,6-dimethylphenyl)urea]	20

Other lines, results leading:

IC50 [nM]	SMILES
330	CCCCCCCN(Cc1ccc(COCCC(C)C)cc1)C(=O)Nc1ccc(F)cc1F [1-(n-Heptyl)-1-[4-(isopentyloxymethyl)benzyl]-3-(2,4-difluorophenyl)urea]
1020	CCCCCCCN(Cc1ccc(CCCC(=O)O)cc1)C(=O)Nc1c(C)cc(Cl)cc1C [1-(n-Heptyl)-1-[4-(3-carboxypropyl)benzyl]-3-(4-chloro-2,6-dimethylphenyl)urea]
3270	CCCCCCCN(Cc1ccc(CCCCSC(C)C)cc1)C(=O)Nc1ccc(F)cc1F [1-(n-Heptyl)-1-[4-(4-isopropylthiobutyl)benzyl]-3-(2,4-difluorophenyl)urea]
1750	CCCCCCCN(Cc1ccc(CC(=O)OC)cc1)C(=O)Nc1ccc(F)cc1F [1-(n-Heptyl)-1-[4-(carbomethoxymethyl)benzyl]-3-(2,4-difluorophenyl)urea]
200	CCCCCCCN(Cc1ccc(CO)cc1)C(=O)Nc1ccc(F)cc1F [1-(n-Heptyl)-1-[4-(hydroxymethyl)benzyl]-3-(2,4-difluorophenyl)urea]
140	CCCCCCCN(Cc1ccc(CC2CCCC2)cc1)C(=O)Nc1ccc(F)cc1F [1-(n-Heptyl)-1-[4-(4-cyclopentylmethyl)benzyl]-3-(2,4-difluorophenyl)urea]
24000	CCCCCCCN(Cc1ccc(CC(=O)O)cc1)C(=O)Nc1ccc(F)cc1F [1-(n-Heptyl)-1-[4-(carboxymethyl)benzyl]-3-(2,4-difluorophenyl)urea]
180	CCCCCCCN(Cc1ccc(COCCC(C)C)cc1)C(=O)Nc1c(F)cc(F)cc1F [1-(n-Heptyl)-1-[4-(isopentyloxymethyl)benzyl]-3-(2,4,6-trifluorophenyl)urea]
130	CCCCCCCN(Cc1ccc(COCCC(C)C)cc1)C(=O)Nc1c(C)cc(Cl)cc1C [1-(n-Heptyl)-1-[4-(isopentyloxymethyl)benzyl]-3-(4-chloro-2,6-dimethylphenyl)urea]

What follows are compounds tested against T2, fatty acyl CoA: cholesterol acyl transferase (ACAT) (Rattus norvegicus, UniProt O70536) (assay: Inhibition of fatty acyl CoA:cholesterol acyl transferase (ACAT), rat adrenal enzyme). Settings: not given.
T2 construct: The supernatant, containing the microsomal fraction, served as the source of the cholesterol-esterifying enzyme; from tissue; host or cells: rat adrenals, supernatant of 1,000 x g centrifugation containing the microsomal fraction
T2 sequence (O70536 1-545): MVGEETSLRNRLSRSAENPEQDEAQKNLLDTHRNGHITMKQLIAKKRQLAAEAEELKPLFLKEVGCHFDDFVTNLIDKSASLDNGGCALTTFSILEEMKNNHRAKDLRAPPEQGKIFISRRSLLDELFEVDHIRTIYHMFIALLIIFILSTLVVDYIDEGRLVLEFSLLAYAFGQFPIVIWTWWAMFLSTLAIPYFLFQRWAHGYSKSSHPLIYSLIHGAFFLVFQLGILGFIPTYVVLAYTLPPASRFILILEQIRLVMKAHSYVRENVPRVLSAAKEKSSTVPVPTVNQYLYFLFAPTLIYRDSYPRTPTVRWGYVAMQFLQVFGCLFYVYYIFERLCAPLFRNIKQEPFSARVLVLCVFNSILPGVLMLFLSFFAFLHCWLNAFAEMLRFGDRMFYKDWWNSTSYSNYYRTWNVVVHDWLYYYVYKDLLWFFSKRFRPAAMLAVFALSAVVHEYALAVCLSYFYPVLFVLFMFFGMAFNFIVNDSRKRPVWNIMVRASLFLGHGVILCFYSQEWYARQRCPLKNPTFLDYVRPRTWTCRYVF
Assay type: biochemical
Summary of the method: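 Read-out was scintillation counting of [14C]cholesteryl ester, isolated by TLC, after 10 min at 37° C with [14C]oleoyl CoA. Beforehand, compound (final 5.2 μg/ml in single-concentration tests) was preincubated 10 min at 37° C with BSA and rat adrenal microsomal supernatant in pH 7.4 phosphate. Results given as percent inhibition versus control or IC50 over several concentrations.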

SMILES	inhibition at 5.2 µg/mL [%]
CCCCCOc1ccc(CN(Cc2ccc(CCCCC)cc2)C(=O)Nc2ccc(F)cc2F)cc1 [1-(4-n-Pentylbenzyl)-1-(4-n-pentyloxybenzyl)-3-(2,4-difluorophenyl)urea]	90
CCCCCCCN(Cc1ccc(CCCC)cc1)C(=O)Nc1ccc(Cl)cc1C(F)(F)F [1-(n-Heptyl)-1-(4-n-butylbenzyl)-3-(2-trifluoromethyl-4-chlorophenyl)urea]	90
CCCCc1ccc(CN(CCC(C)(C)C)C(=O)Nc2c(C)cc(Cl)cc2C)cc1 [1-(3,3-Dimethylbutyl)-1-[4-(n-butyl)benzyl]-3-(4-chloro-2,6-dimethylphenyl)urea]	90

Same assay, conditions: rat adrenal ACAT; final concentration 5.2 μg/ml; read-out: % Inhibition

inhibition at 5.2 µg/mL [%]	SMILES
89.3	Cc1cc(Cl)ccc1NC(=O)N(Cc1ccccc1)C(Cc1ccccc1)c1ccc(OCc2ccccc2)cc1 (stereo not drawn) [1-Benzyl-1-[2-phenyl-1-(4-benzyloxyphenyl)ethyl]-3-(2-methyl-4-chlorophenyl)urea]
85.9	CCCCc1ccc(CN(CCOCCO)C(=O)Nc2cc(C)c(C)cc2C)cc1 [1-[(4-Butylphenyl)methyl]-1-[2-(2-hydroxyethoxy)ethyl]-3-(2,4,5-trimethylphenyl)urea]
90.5	CCCCc1ccc(CN(Cc2ccccc2)C(=O)Nc2cc(C)c(C)cc2C)cc1 [1-Benzyl-1-(4-n-butylbenzyl)-3-(2,4,5-trimethylphenyl)urea]

Same assay, conditions: rat adrenal ACAT; several concentrations

IC50 [nM]	SMILES
7220	CCCCCCCN(Cc1ccc(CCCC(=O)O)cc1)C(=O)Nc1c(C)cc(Cl)cc1C [1-(n-Heptyl)-1-[4-(3-carboxypropyl)benzyl]-3-(4-chloro-2,6-dimethylphenyl)urea]
530	CC(C)CCN(Cc1ccc(C(C)C)cc1)C(=O)Nc1c(F)cc(F)cc1F [1-(Isopentyl)-1-[4-(isopropyl)benzyl]-3-(2,4,6-trifluorophenyl)urea]
